{"source": "patent US6344214B1", "about": "“Method for retarding and ameliorating fever blisters and canker sores” (priority 1999, dated 2002)", "key": {"[1]": {"test_system": "herpes Simplex virus", "details": "cited from earlier work"}, "[2]": {"test_system": "chicken embryo fibroblasts (CEF)", "details": "SOD, catalase, glutathione peroxidase as indices; cited from earlier work"}, "[3]": {"test_system": "rat kidney fibroblasts", "details": "UVA light for four hours; cited from earlier work"}, "[4]": {"test_system": "photoreceptor cells of the retina", "details": "37.5 mg/kg intraperitoneal at 12 hour intervals; uninjured control 45, injured without astaxanthin 32; cited from earlier work"}, "[5]": {"test_system": "free putrescine in the epidermis", "details": "10 ppm astaxanthin diet, 4 months; control increased 4.1-fold; cited from earlier work"}, "[6]": {"test_system": "rats", "details": "400 ppm for 41 days; cited from earlier work"}, "[7]": {"details": "in vivo; cited from earlier work"}, "[8]": {"test_system": "rhodopsin", "details": "oral dosing, cited from earlier work"}, "[9]": {"test_system": "CYP1A1", "details": "dietary level 300 ppm; cited from earlier work"}, "[10]": {"test_system": "preneoplastic lesions and neoplasms in the bladder", "details": "50-ppm astaxanthin in drinking water; cited from earlier work"}, "[11]": {"details": "0.1% dietary astaxanthin for 30 days, cited from earlier work"}, "[12]": {"test_system": "cold sores", "test": "Example 1: oral astaxanthin soft gel capsules, cold sore outbreaks in one individual", "assay_type": "in vivo, human", "protocol": "(§1) Haematococcus algae meal containing 1.5% astaxanthin was thoroughly mixed with safflower oil such that the resulting suspension contained 2.0 mg of pure astaxanthin per gram of safflower oil suspension. 500 mg soft gel capsules were produced from the safflower oil suspension such that each soft gel capsule contained 1.0 mg of pure astaxanthin.\nOne individual was a person who has suffered from cold sore outbreaks every 4-6 weeks on average which lasted 10-14 days . This individual consumed 3.0 mg of astaxanthin (three soft gel capsules) per day for two weeks prior to an outbreak, and the symptoms lasted only 2 days instead of 2 weeks."}, "[13]": {"test_system": "shrimp", "details": "50 mg/kg diet, 3 months; cited from earlier work"}, "[14]": {"test_system": "canker sores", "test": "Example 2: oral astaxanthin soft gel capsules, canker sores in one individual", "assay_type": "in vivo, human", "protocol": "as §1\nA second individual was a person who had often suffered canker sores on the inside of their mouth. They had difficulty and pain eating sour and tart foods due to the condition. This individual consumed 2.0 mg of astaxanthin (two soft gel capsules) per day for three weeks and the cankers sores were alleviated. They were then able to eat sour and tart foods without suffering pain from the canker sores. When the individual stopped taking the supplement the canker sores returned within 10 days."}, "[15]": {"test_system": "Atlantic salmon fry", "details": "cited from earlier work"}, "[16]": {"test_system": "neoplastic liver lesions", "details": "dietary astaxanthin; cited from earlier work"}, "[17]": {"test_system": "neoplasms in the oral cavity", "details": "cited from earlier work"}, "[18]": {"test_system": "neoplasms in the large intestines", "details": "rats fed astaxanthin, azoxymethane induction; cited from earlier work"}, "[19]": {"details": "2 mg astaxanthin capsule, six months; placebo 21.78; P=0.047; cited from earlier work"}}, "note": "Read-outs that look alike come from different tables or passages of the source.", "data": [{"compound": "Nc1nc2c(ncn2COCCO)c(=O)[nH]1", "note": "[acyclovir, Acyclovir]", "values": [{"measurement": "patients with no fever blister outbreaks", "setting": "[1]; four acyclovir pills daily for 4 months", "result": 50, "unit": "%"}, {"measurement": "effectiveness against fever blisters", "setting": "[1]; pills taken at onset of symptoms, or cream applied to blisters or tingling lip areas, separate studies", "result": "only minimally effective"}]}, {"compound": "CC1=C(/C=C/C(C)=C/C=C/C(C)=C/C=C/C=C(C)/C=C/C=C(C)/C=C/C2=C(C)C(=O)[C@@H](O)CC2(C)C)C(C)(C)C[C@H](O)C1=O", "note": "[astaxanthin]", "values": [{"measurement": "protection against paraquat-induced oxidative stress", "setting": "[2]", "result": "observed at all levels of astaxanthin tested"}, {"measurement": "level required to restore superoxide dismutase activity", "setting": "[3]", "result": 5, "unit": "nM"}, {"measurement": "level that prevented the UVA-induced increase in TBARS", "setting": "[3]", "result": 1, "unit": "nM"}, {"measurement": "level that returned catalase activity to control levels", "setting": "[3]", "result": 5, "unit": "nM"}, {"measurement": "outer nuclear layer (ONL) thickness after photic injury", "setting": "[4]", "result": 42, "unit": "microns"}, {"measurement": "increase of putrescine after UV irradiation", "setting": "[5]", "result": 1.5, "unit": "fold"}, {"measurement": "effects on body/organ weight, enzyme activities, pregnancy, litter size", "setting": "[6]", "result": "no harmful effects"}, {"measurement": "crossing of the blood-brain barrier", "setting": "[7]", "result": "able to readily cross the blood-brain barrier"}, {"measurement": "retinal rhodopsin level", "setting": "[8]; 6-hour post injury, control 0.75", "result": "1.15 to 1.2", "unit": "nmol"}, {"measurement": "retinal rhodopsin level", "setting": "[8]; 6 days after injury, constant through day 13, control 0.5", "result": "about 1.25 nmol"}, {"measurement": "induction of CYP1A1", "setting": "[9]", "result": "strong inducer"}, {"measurement": "incidence of preneoplastic lesions and neoplasms in the bladder", "setting": "[10]", "result": "significantly reduced incidence"}, {"measurement": "LDL cholesterol", "setting": "[11]; control diet 12.5", "result": 9.6, "unit": "mg/dL"}, {"measurement": "HDL cholesterol", "setting": "[11]; control diet 42.4", "result": 57, "unit": "mg/dL"}, {"measurement": "duration of cold sore symptoms", "setting": "[12]; 3.0 mg astaxanthin per day (three soft gel capsules) for two weeks before the outbreak, earlier 10-14 days", "result": 2, "unit": "days"}, {"measurement": "recurrence of cold sores", "setting": "[12]; 3.0 mg per day, earlier outbreaks every 4-6 weeks", "result": "has not had a another recurrence of cold sores in three months"}, {"measurement": "average survival rate", "setting": "[13]", "result": 87, "unit": "%"}, {"measurement": "effect on canker sores", "setting": "[14]; 2.0 mg astaxanthin per day (two soft gel capsules) for three weeks", "result": "alleviated"}, {"measurement": "time to return of canker sores after stopping the supplement", "setting": "[14]; after stopping 2.0 mg per day", "result": "≤ 10", "unit": "days"}, {"measurement": "effect on symptoms on taking the supplement again", "setting": "[14]; same dosage, 2.0 mg per day", "result": "ameliorated after approximately three weeks"}, {"measurement": "survival rate", "setting": "[15]; astaxanthin concentrations below 1 ppm in diet", "result": "less than 50%"}, {"measurement": "survival rate", "setting": "[15]; groups receiving higher concentrations", "result": "greater than 90%"}, {"measurement": "number and size of neoplastic liver lesions", "setting": "[16]", "result": "significant influence on the reduction in number and size"}, {"measurement": "incidences of preneoplastic and neoplasms in the oral cavity", "setting": "[17]; 100-ppm dietary astaxanthin after the carcinogenic chemical induction", "result": "significantly smaller"}, {"measurement": "oral neoplasms", "setting": "[17]; astaxanthin and the chemical inducer fed at the same time", "result": "no oral neoplasms developed"}, {"measurement": "incidence and multiplicity of neoplasms in the large intestines", "setting": "[18]", "result": "significantly smaller"}, {"measurement": "strength/endurance average score (knee bends with a barbell weight)", "setting": "[19]", "result": 61.74}]}, {"compound": "CC1=C(/C=C/C(C)=C/C=C/C(C)=C/C=C/C=C(C)/C=C/C=C(C)/C=C/C2=C(C)CCCC2(C)C)C(C)(C)CCC1", "note": "[beta-carotene]", "values": [{"measurement": "level required to restore superoxide dismutase activity", "setting": "[3]", "result": 500, "unit": "nM"}, {"measurement": "level that prevented the UVA-induced increase in TBARS", "setting": "[3]", "result": 100, "unit": "nM"}, {"measurement": "level that returned catalase activity to control levels", "setting": "[3]", "result": 1000, "unit": "nM"}, {"measurement": "average survival rate", "setting": "[13]", "result": 50, "unit": "%"}]}, {"compound": "CC1=C[C@H](O)CC(C)(C)[C@H]1/C=C/C(C)=C/C=C/C(C)=C/C=C/C=C(C)/C=C/C=C(C)/C=C/C1=C(C)C[C@@H](O)CC1(C)C", "note": "[lutein]", "values": [{"measurement": "level required to restore superoxide dismutase activity", "setting": "[3]", "result": 1000, "unit": "nM"}, {"measurement": "level that prevented the UVA-induced increase in TBARS", "setting": "[3]", "result": 1000, "unit": "nM"}, {"measurement": "level that returned catalase activity to control levels", "setting": "[3]", "result": 100, "unit": "nM"}]}]}
